According to patent US7456161B2 (Epigenesis Pharmaceuticals, LLC, priority 2001, dated 2008):
“Also recorded” adds a separate entry of the source.

Legend:
Intracellular Adenosine = experiment: In vivo effect on adenosine levels in various rat tissues (HPLC, spectrofluorometric detection)
Method: Folinic acid (50 mg/kg) was administered intraperitoneally once daily for fourteen days. […] Hearts were removed from animals and flash frozen in liquid nitrogen with 10 seconds of death. Liver and lungs were removed en bloc and flash frozen within 30 seconds of death. Brain tissue was subsequently dissected.

HT-29 SF cells [1] = experiment: Cell cycle distribution by flow cytometry (propidium iodide) and reversal of the DHEA effect; assay type: cell-based, human; settings: for cell morphology: HT-29 SF cells exposed to DHEA, data not shown
HT-29 SF cells [2] = experiment: DHEA effect on cell growth (cell number, Coulter counter) and its reversal by supplements; assay type: cell-based, human; settings: 12.5-200 μM, 24-72 hours

Nc1nc(=O)c2c([nH]1)NCC(CNc1ccc(C(=O)N[C@@H](CCC(=O)O)C(=O)O)cc1)N2C=O (mixture of isomers) [Folinic Acid (F.A.), Folinic acid]
effect on tissue adenosine levels (in words) (Intracellular Adenosine; rats, daily for two weeks, listed as Folinic acid): increase in adenosine levels for all organs studied
effect on tissue adenosine levels (in words) (Intracellular Adenosine; rats, daily for two weeks, listed as folinic acid): completely abrogated steroid-mediated adenosine depletion

C[C@]12CC[C@H](O)CC1=CC[C@@H]1[C@@H]2CC[C@]2(C)C(=O)CC[C@@H]12 [DHEA, (3β)-3-hydroxyandrost-5-en-17-one]
effect on tissue adenosine levels (in words) (Intracellular Adenosine; rat, in vivo): multi-organ depletion of adenosine
cell cycle distribution (HT-29 SF cells [1]; 200 μM DHEA, after 24 hours): increase in the percentage of cells in G1 and a decreased proportion of cells in S phase
effect on cell cycle (G1, S phase) with time of exposure (in words) (HT-29 SF cells [1]; 25-200 μM DHEA, 24-72 hours): G1 block in HT-29 SF cells in a time-and dose-dependent manner; also recorded: progressively reduced the proportion of cells in S phase
cell morphology (HT-29 SF cells [1]): acquiring a rounded shape
inhibition of growth of HT-29 SF cells (in words) (HT-29 SF cells [2]): time- and dose-dependent inhibition of growth

C[C@@](O)(CCO)CC(=O)O [MVA, mevalonic acid, reference compound]
prevention of DHEA-induced S phase depletion (HT-29 SF cells [1]; 25 FM DHEA, 72 hours): not after 72 hours
cell morphology (HT-29 SF cells [1]): prevented only by the addition of MVA

C[C@]12CCC(=O)C=C1CC[C@@H]1[C@@H]2CC[C@@]2(C)[C@H]1CC[C@]2(C)O [Methyltestosterone, methyltestosterone]
effect on tissue adenosine levels (in words) (Intracellular Adenosine; rats, daily for two weeks): multi-organ depletion of adenosine
